Like-named read-outs stand apart in the source and are kept apart here.
Tests used:
β2-adrenoceptor (β2AR) [1] = assay: cells; set-up: species or system HEK293G overexpressing TS-SNAP-β2AR; GloSensor cAMP luminescence; inverse agonist inhibition of the peak basal (mechanically stimulated) response; settings: HEK293G, read-out: % of control remaining
Experimental: (§1) Four inverse agonists were evaluated as inhibitors of the basal GloSensor^TM response in HEK293G cells overexpressing the TS-SNAP-β2AR (Fig. 3). […] Each inverse agonist was added immediately following an initial luminescence read at time zero. The plate therefore entered the PheraStar at time zero, was then removed for the addition of inverse agonist or HBSS and measurements were made again at t = 1 min and every minute thereafter. Values are mean ± SEM of five independent experiments.

β2-adrenoceptor (β2AR) [2] = assay: cells; set-up: species or system HEK293G overexpressing TS-SNAP-β2AR; GloSensor cAMP luminescence; inverse agonist inhibition of the peak basal (mechanically stimulated) response; settings: HEK293G, read-out: % of control remaining; remark: listed apart in the source
Experimental: as §1

β2-adrenoceptor (β2AR) [3] = target: T1, β2-adrenoceptor (β2AR) (Homo sapiens, UniProt P07550); assay: NanoBRET saturation binding in live HEK293G cells; assay type: cell-based
T1 construct: gene ADRB2; HiBiT-β2AR (N-terminal HiBiT tag), complemented with LgBiT
T1 sequence (P07550 whole entry): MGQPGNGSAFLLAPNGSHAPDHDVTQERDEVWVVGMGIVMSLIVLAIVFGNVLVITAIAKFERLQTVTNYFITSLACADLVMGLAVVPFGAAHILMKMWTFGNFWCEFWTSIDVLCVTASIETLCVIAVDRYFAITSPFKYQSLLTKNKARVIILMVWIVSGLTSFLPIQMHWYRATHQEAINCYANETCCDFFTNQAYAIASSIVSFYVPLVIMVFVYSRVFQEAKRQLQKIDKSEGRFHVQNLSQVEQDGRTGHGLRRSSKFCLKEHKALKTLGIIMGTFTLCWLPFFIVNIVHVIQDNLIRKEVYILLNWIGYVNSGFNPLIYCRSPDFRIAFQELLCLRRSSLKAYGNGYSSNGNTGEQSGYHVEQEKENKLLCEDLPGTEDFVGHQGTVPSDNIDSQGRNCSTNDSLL

Kd (β2-adrenoceptor (β2AR) [3]) [µM]	SMILES	activity at 10 µM (β2-adrenoceptor (β2AR) [1]) [%]	activity at 10 µM (β2-adrenoceptor (β2AR) [2]) [%]
–	COc1ccccc1OCCNCC(O)COc1cccc2[nH]c3ccccc3c12 (stereo not drawn) [carvedilol]	41.1 ± 4.32	54 ± 10.6
0.0326 ± 0.00742	Cc1ccc(OCC(O)C(C)NCCNC(=O)CCNC(=O)CCNC(=O)CCCCCNC(=O)COc2ccc(C=CC3=[N+]4C(=Cc5ccc(-c6cccs6)n5[B-]4(F)F)C=C3)cc2)c2c1CCC2 (stereo not drawn) [ICI-118551-βAla-βAla-BODIPY-X-630/650]	–	–

— PMC10997663, “Mechano-sensitivity of β2-adrenoceptors enhances constitutive activation of cAMP generation that is inhibited by inverse agonists” (Communications Biology, 2024)
